Measurements from US12642805B2, “Use of oxygenated cholesterol sulfates for treating at least one of insulin resistance, diabetes, and prediabetes” (Medicis Pharmaceutical Corporation, priority 2020, dated 2026).
Like-named read-outs stand apart in the source and are kept apart here.

Assay: Phase 1b 4-week oral dosing study in NASH patients: pharmacokinetics
Assay type: in vivo, human
Settings: for AUC(0-t) / Cmax / half-life / Tmax: both sexes, human, plasma, oral; for AUC(0-t): read-out: AUC(0-T), mean (standard deviation); for Cmax: read-out: Cmax, mean (standard deviation); for half-life: read-out: T1/2, mean (standard deviation) (converted); for Tmax: read-out: Tmax, mean (standard deviation)
Excerpt: A total of 63 patients completed the study with 21 patients per dose group (completion of MRI-PDFF measurement). […] Subjects provided written informed consent to participate in the study • 2. Males or females subjects 18 years or older, at the time of signing informed consent • 3. BMI 20-45 kg/m^2 • 4. […] Value of Fibroscan®≥7 kPa • OR • b. MRE≥2.75 kPa • Clinical diagnosis of NASH was defined in this clinical trial as the existence of one or more of the following risk factors for NASH, namely: • a. Type 2 diabetes or elevated fasting blood sugar • b. Abdominal obesity • c. Elevated lipid levels, especially elevated levels of serum triglycerides • d. Hypertension, or • e. Low levels of HDL cholesterol • 5. For serum transaminases, ALT concentration for all patients at the time of screening was >1 and <5 times upper limit of normal (ULN) of the central lab in the absence of another cause of liver disease. If a patient had lab records in the past 6 months, ALT concentrations were <20 U/L female and <30 U/L male. AST concentration for all patients at the time of screening was <5× ULN • 6. […] Platelet counts≥120,000/mm^3 • 8. Female subjects were eligible for the study if they met the following criteria: • Are not pregnant or nursing • Women of child-bearing potential (defined as females who are not surgically sterile or who are not over the age of 52 and amenorrheic for at least 12 months) must utilize appropriate birth control throughout the study duration. Acceptable methods that may be used are abstinence, birth control pills (“The Pill”) or patch, diaphragm, IUD (coil), vaginal ring, condom, surgical sterilization or progestin implant or injection, or sexual activity limited to a sterile (e.g., vasectomized) male partner • 9. Male participants agreed to consistently and correctly use a condom in combination with one of the above methods of birth control from enrolment to 30 days after the last dose of study medication • 10. Participants were able to comply with dosing and able to complete the study schedule of assessments

CL/F, mean (standard deviation) (50 mg QD (n = 22)): 150.6 (51.5) L/h
CL/F, mean (standard deviation) (150 mg QD (n = 21)): 176.6 (80.5) L/h
CL/F, mean (standard deviation) (300 mg BID (n = 21)): 166.2 (60.4) L/h
AUC(0-t) (50 mg QD (n = 22)): 340 ng·h/mL
Cmax (50 mg QD (n = 22)): 79.1 ng/mL
half-life (50 mg QD (n = 22)): 2.7 h
Tmax (50 mg QD (n = 22)): 2.4 h
AUC(0-t) (150 mg QD (n = 21)): 1040 ng·h/mL
Cmax (150 mg QD (n = 21)): 274 ng/mL
half-life (150 mg QD (n = 21)): 2.7 h
Tmax (150 mg QD (n = 21)): 2 h
AUC(0-t) (300 mg BID (n = 21)): 2140 ng·h/mL
Cmax (300 mg BID (n = 21)): 430 ng/mL
half-life (300 mg BID (n = 21)): 2.4 h
Tmax (300 mg BID (n = 21)): 2.3 h
Structure (SMILES): C[C@H](CCCC(C)(C)O)[C@H]1CC[C@H]2[C@@H]3CC=C4C[C@@H](OS(=O)(=O)O)CC[C@]4(C)[C@H]3CC[C@]12C [25HC3S, 25-hydroxycholesterol-3-sulfate]
